Laboratory results: patent US20010046662A1, “Method of inactivating pathogens in a red blood cell-containing composition” (priority 2000, published 2001)
Where “and” joins values, the source holds several entries; their conditions need not be identical. Equal values may be shown once.

Experiments:
[1] = tested on: red blood cells; conditions: with type 1/type 2 quenchers, optimized conditions; cited from earlier work
[2] = tested on: red cells; assay: Red cell hemolysis at day 42 for DMMB+light treated samples in a flow system; conditions: for Hemolysis (%), day 42: approximately 3.5 μM DMMB, no blocker, stored at 1-6° C.
[3] = tested on: VSV; format: cell-based, vesicular stomatitis virus

phthalocyanine 4
cells that hemolyze after 21 days of storage [1]: about 2%

Cc1cc(N(C)C)cc2[s+]c3cc(N(C)C)cc(C)c3nc12 [DMMB, 1,9-dimethylmethylene blue]
Hemolysis (%), day 42 ([2]; light fluence 226 mJ/cm^2): 2.8% and 2.84% | Hemolysis (%), day 42 ([2]; light fluence 889 mJ/cm^2): 14.5% and 14.53% | Hemolysis (%), day 42 ([2]; light fluence 1597 mJ/cm^2): 12.10% | increase in hemolysis with greater light fluences ([2]; samples lacking riboflavin, 2.8 to 14.5%): 500% | increase in VSV inactivation with greater light fluences [3]: 50%

Cc1cc2nc3c(=O)[nH]c(=O)nc-3n(C[C@H](O)[C@H](O)[C@H](O)CO)c2cc1C [riboflavin, 7,8-dimethyl-10-ribitylisoalloxazine]
enhancement of VSV inactivation by addition of the blocker [3]: > 4.1 log10
